“And” between values parts separate entries of the source, which are not always exact repeats. Equal values may be shown once. Read-outs that look alike come from different tables or passages of the source.
Key:
[1] = Solubility (formulated); format: physicochemical
[2] = test system: Escherichia coli; experiment: microbe, parasite or virus in culture; format: cell-based
[3] = test system: Neisseria gonorrhoeae; experiment: MIC, microbroth dilution, G77L medium; format: cell-based

O=C(Nc1nnc(-c2ccc(F)cc2)o1)N1CCc2ccccc2C1 [MBX-4132]
0.213 µg/mL: MIC ([3]; Neisseria gonorrhoeae, ATCC700719, read-out: MIC GEOMEAN, strain ATCC 700719, geomean of replicates)
0.08459 µg/mL: MIC ([3]; Neisseria gonorrhoeae ATCC 49226, source data, individual replicates)
0.68 µg/mL: MIC ([3]; Neisseria gonorrhoeae, strain CDC-0165, CIP, PEN, TET)
5000 µg/mL: Solubility [1]
0.338 µg/mL: MIC ([3]; Neisseria gonorrhoeae, read-out: MIC GEOMEAN, strain CDC-0176, geomean of replicates) | MIC ([3]; Neisseria gonorrhoeae, read-out: MIC GEOMEAN, strain CDC-0178, geomean of replicates) | MIC ([3]; Neisseria gonorrhoeae, read-out: MIC GEOMEAN, strain CDC-0183, geomean of replicates) | MIC ([3]; Neisseria gonorrhoeae, read-out: MIC GEOMEAN, strain CDC-0187, geomean of replicates) | MIC ([3]; Neisseria gonorrhoeae, strain CDC-0176, replicates 1-3) | MIC ([3]; Neisseria gonorrhoeae, strain CDC-0178, replicates 1-3) | MIC ([3]; Neisseria gonorrhoeae, strain CDC-0183, replicates 1-3) | MIC ([3]; Neisseria gonorrhoeae, strain CDC-0185, replicates 1-3)
2.11 µg/ml (4×) and 4.23 µg/ml (2×): MIC ([2]; Escherichia coli KLE701 (ΔtolC), replicates)
0.042 µg/mL: MIC ([3]; Neisseria gonorrhoeae, ATCC700825, read-out: MIC GEOMEAN, strain ATCC 700825, geomean of replicates) | MIC ([3]; Neisseria gonorrhoeae, ATCC700825, strain ATCC 700825, replicates 1-3) | MIC ([3]; Neisseria gonorrhoeae, BAA1846, read-out: MIC GEOMEAN, strain BAA-1846, geomean of replicates) | MIC ([3]; Neisseria gonorrhoeae, BAA1846, strain BAA-1846, replicates 1-3)
4.229 µg/mL: MIC ([2]; E. coli KLE701 (ΔtolC::tet), source data, individual replicates)
0.066 µg/mL: MIC ([3]; Neisseria gonorrhoeae, read-out: MIC GEOMEAN, strain WHO F, geomean of replicates)
≥ 34 µg/mL: MIC ([2]; Escherichia coli, Escherichia coli KLE700, replicates, read-out: MIC) | MIC ([2]; Escherichia coli, strain KLE700, read-out: MIC)
0.53 µg/mL: MIC90 ([3]; Neisseria gonorrhoeae, read-out: MIC90 (n))
0.34 µg/mL: MIC90 ([3]; Neisseria gonorrhoeae, read-out: N. gonorrhoeae MIC90) | MIC ([3]; Neisseria gonorrhoeae, strain CDC-0176) | MIC ([3]; Neisseria gonorrhoeae, strain CDC-0178, TET) | MIC ([3]; Neisseria gonorrhoeae, strain CDC-0183, CIP, PEN, TET)
0.264 µg/mL: MIC ([3]; Neisseria gonorrhoeae, read-out: MIC GEOMEAN, strain WHO K, geomean of replicates) | MIC ([3]; Neisseria gonorrhoeae, read-out: MIC GEOMEAN, strain WHO L, geomean of replicates) | MIC ([3]; Neisseria gonorrhoeae, read-out: MIC GEOMEAN, strain WHO N, geomean of replicates) | MIC ([3]; Neisseria gonorrhoeae, read-out: MIC GEOMEAN, strain WHO V, geomean of replicates) | MIC ([3]; Neisseria gonorrhoeae, read-out: MIC GEOMEAN, strain WHO Z, geomean of replicates)
2.8 µg/mL: MIC ([2]; Escherichia coli, strain KLE701, KLE700 ΔtolC::tet)
2.11 µg/mL: MIC ([2]; Escherichia coli, E. coli KLE701 (ΔtolC::tet), source data, individual replicates)
0.169 µg/mL: MIC ([3]; Neisseria gonorrhoeae, ATCC49226, Neisseria gonorrhoeae ATCC 49226, source data, individual replicates) | MIC ([3]; Neisseria gonorrhoeae, ATCC49226, strain ATCC 49226, replicates 1-3) | MIC ([3]; Neisseria gonorrhoeae, ATCC700719, strain ATCC 700719, replicates 1-3) | MIC ([3]; Neisseria gonorrhoeae, read-out: MIC GEOMEAN, strain CDC-0166, geomean of replicates) | MIC ([3]; Neisseria gonorrhoeae, read-out: MIC GEOMEAN, strain CDC-0169, geomean of replicates) | MIC ([3]; Neisseria gonorrhoeae, read-out: MIC GEOMEAN, strain CDC-0170, geomean of replicates) | MIC ([3]; Neisseria gonorrhoeae, read-out: MIC GEOMEAN, strain CDC-0171, geomean of replicates) | MIC ([3]; Neisseria gonorrhoeae, read-out: MIC GEOMEAN, strain CDC-0172, geomean of replicates) | MIC ([3]; Neisseria gonorrhoeae, read-out: MIC GEOMEAN, strain CDC-0173, geomean of replicates) | MIC ([3]; Neisseria gonorrhoeae, read-out: MIC GEOMEAN, strain CDC-0174, geomean of replicates) | MIC ([3]; Neisseria gonorrhoeae, read-out: MIC GEOMEAN, strain CDC-0177, geomean of replicates) | MIC ([3]; Neisseria gonorrhoeae, read-out: MIC GEOMEAN, strain CDC-0180, geomean of replicates) | MIC ([3]; Neisseria gonorrhoeae, read-out: MIC GEOMEAN, strain CDC-0181, geomean of replicates) | MIC ([3]; Neisseria gonorrhoeae, read-out: MIC GEOMEAN, strain CDC-0182, geomean of replicates) | MIC ([3]; Neisseria gonorrhoeae, read-out: MIC GEOMEAN, strain CDC-0184, geomean of replicates) | MIC ([3]; Neisseria gonorrhoeae, read-out: MIC GEOMEAN, strain CDC-0186, geomean of replicates) | MIC ([3]; Neisseria gonorrhoeae, read-out: MIC GEOMEAN, strain CDC-0188, geomean of replicates) | MIC ([3]; Neisseria gonorrhoeae, read-out: MIC GEOMEAN, strain CDC-0190, geomean of replicates) | MIC ([3]; Neisseria gonorrhoeae, read-out: MIC GEOMEAN, strain HO41, geomean of replicates) | MIC ([3]; Neisseria gonorrhoeae, strain CDC-0166, replicates 1-3) | MIC ([3]; Neisseria gonorrhoeae, strain CDC-0167, replicates 1-3) | MIC ([3]; Neisseria gonorrhoeae, strain CDC-0169, replicates 1-3) | MIC ([3]; Neisseria gonorrhoeae, strain CDC-0170, replicates 1-3) | MIC ([3]; Neisseria gonorrhoeae, strain CDC-0171, replicates 1-3) | MIC ([3]; Neisseria gonorrhoeae, strain CDC-0172, replicates 1-3) | MIC ([3]; Neisseria gonorrhoeae, strain CDC-0173, replicates 1-3) | MIC ([3]; Neisseria gonorrhoeae, strain CDC-0174, replicates 1-3) | MIC ([3]; Neisseria gonorrhoeae, strain CDC-0177, replicates 1-3) | MIC ([3]; Neisseria gonorrhoeae, strain CDC-0180, replicates 1-3) | MIC ([3]; Neisseria gonorrhoeae, strain CDC-0181, replicates 1-3) | MIC ([3]; Neisseria gonorrhoeae, strain CDC-0182, replicates 1-3) | MIC ([3]; Neisseria gonorrhoeae, strain CDC-0184, replicates 1-3)
0.132 µg/mL: MIC ([3]; Neisseria gonorrhoeae, read-out: MIC GEOMEAN, strain WHO G, geomean of replicates) | MIC ([3]; Neisseria gonorrhoeae, read-out: MIC GEOMEAN, strain WHO M, geomean of replicates) | MIC ([3]; Neisseria gonorrhoeae, read-out: MIC GEOMEAN, strain WHO O, geomean of replicates) | MIC ([3]; Neisseria gonorrhoeae, read-out: MIC GEOMEAN, strain WHO U, geomean of replicates) | MIC ([3]; Neisseria gonorrhoeae, read-out: MIC GEOMEAN, strain WHO W, geomean of replicates)
0.269 µg/mL: MIC ([3]; Neisseria gonorrhoeae, read-out: MIC GEOMEAN, strain CDC-0185, geomean of replicates)
0.17 µg/mL: MIC ([3]; Neisseria gonorrhoeae, strain CDC-0166, CIP, PEN, TET) | MIC ([3]; Neisseria gonorrhoeae, strain CDC-0169, CIP, PEN, TET) | MIC ([3]; Neisseria gonorrhoeae, strain CDC-0170, CIP, PEN, TET) | MIC ([3]; Neisseria gonorrhoeae, strain CDC-0171, CIP, PEN, TET) | MIC ([3]; Neisseria gonorrhoeae, strain CDC-0172, CIP, PEN, TET) | MIC ([3]; Neisseria gonorrhoeae, strain CDC-0173, CIP, PEN, TET) | MIC ([3]; Neisseria gonorrhoeae, strain CDC-0174, CIP, PEN, TET) | MIC ([3]; Neisseria gonorrhoeae, strain CDC-0177, CIP, PEN, TET) | MIC ([3]; Neisseria gonorrhoeae, strain CDC-0180) | MIC ([3]; Neisseria gonorrhoeae, strain CDC-0181, CIP, PEN, TET) | MIC ([3]; Neisseria gonorrhoeae, strain CDC-0182, TET) | MIC ([3]; Neisseria gonorrhoeae, strain CDC-0184, CIP, PEN, TET) | MIC ([3]; Neisseria gonorrhoeae, strain CDC-0186, CIP, PEN, TET)
0.04 µg/mL: MIC ([3]; Neisseria gonorrhoeae, ATCC700825, strain ATCC 700825, STR) | MIC ([3]; Neisseria gonorrhoeae, BAA1846, strain BAA-1846, TET)
0.13 µg/mL: MIC ([3]; Neisseria gonorrhoeae, ATCC49226, strain ATCC 49226, type strain) | MIC ([3]; Neisseria gonorrhoeae, strain CDC-0167)
≥34 µg/mL: MIC ([2]; Escherichia coli KLE700, replicates)
0.333 µg/mL: MIC ([3]; Neisseria gonorrhoeae, read-out: MIC GEOMEAN, strain WHO P, geomean of replicates)
0.08 µg/mL: MIC ([3]; Neisseria gonorrhoeae, strain CDC-0175, CIP, PEN, TET) | MIC ([3]; Neisseria gonorrhoeae, strain CDC-0179, CIP, PEN, TET)
0.27 µg/mL: MIC ([3]; Neisseria gonorrhoeae, ATCC49226, strain MMX ATCC 49226, broth dilution by Micromyx) | MIC ([3]; Neisseria gonorrhoeae, strain CDC-0185, CIP, PEN, TET)
0.134 µg/mL: MIC ([3]; Neisseria gonorrhoeae, ATCC49226, read-out: MIC GEOMEAN, strain ATCC 49226, geomean of replicates) | MIC ([3]; Neisseria gonorrhoeae, read-out: MIC GEOMEAN, strain CDC-0167, geomean of replicates) | MIC ([3]; Neisseria gonorrhoeae, read-out: MIC GEOMEAN, strain CDC-0189, geomean of replicates)
0.21 µg/mL: MIC ([3]; Neisseria gonorrhoeae, ATCC700719, strain ATCC 700719, SPT) | MIC ([3]; Neisseria gonorrhoeae, read-out: MIC GEOMEAN, strain WHO X, geomean of replicates) | MIC ([3]; Neisseria gonorrhoeae, read-out: MIC GEOMEAN, strain WHO Y, geomean of replicates)
0.677 µg/mL: MIC ([3]; Neisseria gonorrhoeae, read-out: MIC GEOMEAN, strain CDC-0165, geomean of replicates) | MIC ([3]; Neisseria gonorrhoeae, strain CDC-0165, replicates 1-3)
0.18 µg/mL: MIC ([3]; Neisseria gonorrhoeae, read-out: N. gonorrhoeae H041 MIC, strain H041, Fig. 1B)
0.085 µg/mL: MIC ([3]; Neisseria gonorrhoeae, read-out: MIC GEOMEAN, strain CDC-0175, geomean of replicates) | MIC ([3]; Neisseria gonorrhoeae, read-out: MIC GEOMEAN, strain CDC-0179, geomean of replicates) | MIC ([3]; Neisseria gonorrhoeae, strain CDC-0175, replicates 1-3) | MIC ([3]; Neisseria gonorrhoeae, strain CDC-0179, replicates 1-3)
